Results published in publication PMC7138307 (PLoS ONE, 2020).
pIC50: −log10 of the molar value.

Assays:
[1] = biological target: T1, TTBK1 (Homo sapiens, UniProt Q5TCY1); assay: TTBK biochemical (recombinant kinase) assay
T1 construct: TTBK1 1-479aa; SignalChem Catalog # T17-11G-05; purchased SignalChem T17-11G-05
Method: Final Kinase Activity conditions; 400 pM TTBK1 at ambient temperature in 25 mM Hepes, pH 7.5, 50 mM NaCl, 10 mM MgCl2, 0.02% Brij-35, 1 mM DTT, 10 uM ATP and 100 nM Ulight TOPO IIa peptide substrate ([sequence]). After a 2 hour incubation at 23 °C, the kinase reaction was quenched with 30 ul of 60 mM EDTA, and 2 nM Eu-anti- FDEKpTDDEDF antibody in 1X Lance Delfia Detection Buffer and incubated for one hour prior to detection with the EnVision Multilabel Reader (PerkinElmer). […] For compound inhibition, 15 ul of 800 pM TTBK1 was preincubated for 30 minutes with 300 nl of 100x compound stock in DMSO before initiation of the activity by addition of 15 ul of 2x Substrate Stock (200 nM peptide and 20 uM ATP).

[2] = test system: tau phosphorylation following TTBK1 overexpression in HEK293 cells; assay: Western blot of tau phosphorylation in HEK293 cells overexpressing TTBK1 and human Tau (2N4R) plus or minus staurosporine; type: cell-based; details: 10μM, one hour
Source text: However, it is unclear whether TTBK1 directly phosphorylates tau at these sites or whether it enhances the phosphorylation of tau through the activation of other kinases. […]; Fig 1A). […]. TTBK1 overexpression led to the increase in tau phosphorylation at several sites; some previously identified including S422, AT8 ([…]) and S198 as well as additional novel sites like AT180 (Thr231), PHF-13 (S396), S214, and S356 (Fig 1B and 1C). […].
Fig 1 TTBK1 overexpression leads to direct and indirect phosphorylation of Tau at disease-relevant sites. (A) Phylogenetic tree of the human kinome illustrating the biochemical IC50 for Staurosporine against various kinases (data compiled from Davis et al., 2011 in addition to internal data on the affinity of Staurosporine for TTBK1/TTBK2). […] TTBK1 overexpression caused a dramatic increase in the overall level of tau phosphorylation. […]. HEK293 cells obtained from American Type Culture Collection (ATCC, Manassas, VA) were cultured in Dulbecco's modified Eagle's medium (DMEM) supplemented with 10% fetal bovine serum (FBS), 10 units/ml penicillin, and 10μg/ml streptomycin (all reagents were purchased from Gibco, Waltham, MA). Cell cultures were maintained in a humidified 5% (v/v) CO2/air environment at 37°C. When the cells reached 50–80% confluence, they were transfected with a complex consisting of a 3:1 ratio of FuGENE 6 Transfection Reagent (Promega, Madison, WI) and plasmid DNA. Plasmid DNA was balanced out across reactions using an empty plasmid so that the same amount of DNA was added per well. This transfection complex was prepared following the manufacturers protocol and added directly to the cell media for 24 or 48 hours prior to lysis.
Samples were lysed in Pierce RIPA lysis and extraction buffer (Thermo Fisher Scientific, Waltham, MA) supplemented with 1% Halt protease and phosphatase inhibitor cocktail (Thermo Fisher Scientific, Waltham, MA) and centrifuged at 14000 x g for 20 min at 4°C to clear the lysate. Protein concentrations were determined using the Direct Detect Infrared Spectrometer (EMD Millipore Corp., Burlington, MA) and 10μg of each sample was denatured in 6X SDS sample buffer (Boston Bioproducts, Ashland, MA) for 7 minutes at 90°C. Proteins were loaded into a Criterion 7.5% tris-glycine gel (Bio-Rad, Hercules, CA) and separated by SDS-PAGE at 120V for 120 minutes. The gel was transferred to an IBlot2 nitrocellulose membrane (Invitrogen, Carlsbad, CA), blocked with TBST blocking buffer (Li-cor Biosciences, Lincoln, NE) for 1 hour, and washed three times with TBST. The membrane was probed with primary antibodies (1:1000 dilution) in antibody dilution buffer (1:1 TBST blocking buffer and 1X TBST) overnight at 4°C. The following antibodies were used for immunoblotting: TTBK1 (Cat# PA5-20686, Invitrogen, Carlsbad, CA), Tau-5 (Cat# ab80579, Abcam, Cambridge, UK), phospho-Tau S422 (Cat# ab79415, Abcam, Cambridge, UK), S198 (Cat# ab79540, Abcam, Cambridge, UK), AT8 S202/T205 (Cat# MN1020, Invitrogen, Carlsbad, CA), S214 (Cat# ab170892, Abcam, Cambridge, UK), AT180 T231 (Cat# MN1040, Invitrogen, Carlsbad, CA), S262 (Cat# ab131354, Abcam, Cambridge, UK), S356 (Cat# ab75603, Abcam, Cambridge, UK), S396 (Cat# ab109390, Abcam, Cambridge, UK), GAPDH (Cat# 5174S, Cell Signaling Technology, Danvers, MA), and β-actin (Cat# 926–42212, Li-cor Biosciences, Lincoln, NE). The blot was then washed in triplicate with TBST and incubated for 1 hour with secondary antibody (1:10,000 dilution of IRDye 800 anti-mouse IgG and IRDye 680 anti-rabbit IgG, Li-cor Biosciences, Lincoln, NE) in antibody dilution buffer. After a final triplicate wash with TBST, the blot was visualized using the Odyssey CLx imaging system (Li-cor Biosciences, Lincoln, NE).

T1 sequence (Q5TCY1 1-479): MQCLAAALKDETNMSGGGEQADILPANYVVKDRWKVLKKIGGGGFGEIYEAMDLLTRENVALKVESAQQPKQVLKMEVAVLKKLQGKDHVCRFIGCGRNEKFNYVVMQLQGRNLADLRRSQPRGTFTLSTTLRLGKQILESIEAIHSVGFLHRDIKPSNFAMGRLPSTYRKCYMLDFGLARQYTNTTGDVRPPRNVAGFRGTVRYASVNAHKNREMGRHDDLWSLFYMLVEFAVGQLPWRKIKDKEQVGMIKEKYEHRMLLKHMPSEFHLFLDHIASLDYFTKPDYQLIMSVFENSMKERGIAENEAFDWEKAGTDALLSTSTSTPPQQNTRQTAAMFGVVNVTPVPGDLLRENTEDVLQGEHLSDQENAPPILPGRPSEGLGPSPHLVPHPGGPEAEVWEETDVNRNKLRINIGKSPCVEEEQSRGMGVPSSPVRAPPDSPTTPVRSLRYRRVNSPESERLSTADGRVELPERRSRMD

In the case of `CN[C@@H]1C[C@H]2O[C@@](C)([C@@H]1OC)n1c3ccccc3c3c4c(c5c6ccccc6n2c5c31)C(=O)NC4` [Staurosporine, staurosporine], the pIC50 [1] was under 4.52, the “increase in tau phosphorylation at AT8 following TTBK1 overexpression” value [2] was “not inhibited” and the “increase in tau phosphorylation at S198 following TTBK1 overexpression” value [2] was “not inhibited”. For the same compound, the “increase in tau phosphorylation at S422 following TTBK1 overexpression” value [2] was “not inhibited”, the “phosphorylation of tau at AT180” value [2] was “reduced” and the “phosphorylation of tau at S214” value [2] was “reduced”. For the same compound, the “phosphorylation of tau at S356” value [2] was “reduced” and the “phosphorylation of tau at S396” value [2] was “reduced”.
